From patent US11357779B2 (G1 Therapeutics, Inc., priority 2018, dated 2022)
Read-outs that look alike come from different tables or passages of the source.

Assay: Plasma concentration versus time of Compound I and metabolite Compound III in patients dosed QD or BID with Form B of Compound II plus fulvestrant
Format: in vivo, human
Settings: for concentration at 0 h / concentration at 1 h / concentration at 2 h / concentration at 3 h / concentration at 4 h / concentration at 6 h / concentration at 8 h / concentration at 10 h / concentration at 12 h / concentration at 8 day / concentration at 15 day / concentration at 22 day: human, plasma, oral, 100 mg; for concentration at 1 h: Day 1, 1.0 h; for concentration at 2 h: Day 1, 2.0 h; for concentration at 3 h: Day 1, 3.0 h; for concentration at 4 h: Day 1, 4.0 h; for concentration at 6 h: Day 1, 6.0 h; for concentration at 8 h: Day 1, 8.0 h; for concentration at 10 h: Day 1, 10.0 h; for concentration at 12 h: Day 1, 12.0 h
Text: Patients were enrolled into 1 of 2 parallel, independently operating, dose-escalation dosing cohorts with Form B of Compound II administered continuously either once daily (QD) or twice daily (BID) with food with fixed-dose fulvestrant (intramuscularly every 14 days for the first three injections and then every 28 days). Pre- or perimenopausal patients also received goserelin for the duration of study treatment. A […] agonist was started at least 28 days before the first dose of Form B, and those patients who were taking another LHRH agonist were switched to goserelin on Day 1. Patients were split into […] cohorts providing once a day (QD) dosing of 200 mg, 300 mg, 400 mg, 500 mg, or 650 mg of Form B, or twice a day (BID) dosing of 100 mg, 150 mg, or 200 mg of Form B. The second dose in BID cohorts was not administered in the evening until at least 12 hours after the initial morning dose of Form B. The dosing cohorts for Form B of Compound II are provided in Table 1.
Blood samples were collected at the following time points relative to the morning dose of Form B at Day 1 and at Day 29: pre-dose (0 hour) and 1, 2, 3, 4, 6, 8, 10, 12 (prior to the evening dose in the BID cohorts), and 24 (prior to the next day's morning dose) hours after dosing. A 5-minute time window was allowed for samples collected between the predose and 3 hours after Form B dosing. A 15-minute window was allowed for samples collected between 4 to 12 hours after Form B dosing. A 1-hour window was allowed for the sample collected 24 hours after Form B dosing. Blood samples for Compound I PK trough levels were collected pre-dose at Day 8, Day 15, and Day 22 prior to the morning administration of Compound I. Plasma concentrations of Compound I and its metabolite, Compound III, were measured using validated methods.
Analysis of plasma concentration versus time data for calculation of standard pharmacokinetic (PK) parameters following oral administration was conducted using Phoenix WinNonlin version 6.3 using actual blood sampling times.

[1] = Cohort 3, 400 mg QD of Form B, Day 8
[2] = Cohort 3, 400 mg QD of Form B, Day 15
[3] = Cohort 3, 400 mg QD of Form B, Day 22
[4] = Cohort 4, 500 mg QD of Form B, Day 8
[5] = Cohort 4, 500 mg QD of Form B, Day 15
[6] = Cohort 4, 500 mg QD of Form B, Day 22
[7] = Cohort 7, 150 mg BID of Form B, Day 29, 0.0 h
[8] = Cohort 7, 150 mg BID of Form B, Day 29, 1.0 h
[9] = Cohort 7, 150 mg BID of Form B, Day 29, 2.0 h
[10] = Cohort 7, 150 mg BID of Form B, Day 29, 3.0 h
[11] = Cohort 7, 150 mg BID of Form B, Day 29, 4.0 h
[12] = Cohort 7, 150 mg BID of Form B, Day 29, 6.0 h
[13] = Cohort 7, 150 mg BID of Form B, Day 29, 8.0 h
[14] = Cohort 7, 150 mg BID of Form B, Day 29, 10.0 h
[15] = Cohort 7, 150 mg BID of Form B, Day 29, 12.0 h
[16] = Cohort 8, 200 mg BID of Form B, Day 8
[17] = Cohort 8, 200 mg BID of Form B, Day 15
[18] = Cohort 8, 200 mg BID of Form B, Day 22
[19] = Cohort 8, 200 mg BID of Form B, Day 29, 0.0 h
[20] = Cohort 8, 200 mg BID of Form B, Day 29, 1.0 h
[21] = Cohort 8, 200 mg BID of Form B, Day 29, 2.0 h
[22] = Cohort 8, 200 mg BID of Form B, Day 29, 3.0 h
[23] = Cohort 8, 200 mg BID of Form B, Day 29, 4.0 h
[24] = 100 mg BID of Form B, Mean, read-out: Compound I Concentration
[25] = 100 mg BID of Form B, Median, read-out: Compound I Concentration

CC(C)N1CCN(c2ccc(Nc3ncc4cc5n(c4n3)C3(CCCCC3)CNC5=O)nc2)CC1 [Compound I, 2′-((5-(4-isopropylpiperazin-1-yl)pyridin-2-yl)amino)-7′,8′-dihydro-6′H-spiro[cyclohexane-1,9′-pyrazino[1′,2′:1,5]pyrrolo[2,3-d]pyrimidin]-6′-one]
Trough Compound I Concentration (200 mg QD of Form B, Day 8, Mean): 4.93 ng/mL
Trough Compound I Concentration (200 mg QD of Form B, Day 8, Median): 4.22 ng/mL
Trough Compound I Concentration (200 mg QD of Form B, Day 15, Mean): 5.56 ng/mL
Trough Compound I Concentration (200 mg QD of Form B, Day 15, Median): 4.59 ng/mL
Trough Compound I Concentration (200 mg QD of Form B, Day 22, Mean): 6.24 ng/mL
Trough Compound I Concentration (200 mg QD of Form B, Day 22, Median): 5.32 ng/mL
Trough Compound I Concentration (300 mg QD of Form B, Day 8, Mean): 14.0 ng/mL
Trough Compound I Concentration (300 mg QD of Form B, Day 8, Median): 17.3 ng/mL
Trough Compound I Concentration (300 mg QD of Form B, Day 15, Mean): 16.7 ng/mL
Trough Compound I Concentration (300 mg QD of Form B, Day 15, Median): 19.9 ng/mL
Trough Compound I Concentration (300 mg QD of Form B, Day 22, Mean): 16.4 ng/mL
Trough Compound I Concentration (300 mg QD of Form B, Day 22, Median): 10.9 ng/mL
Trough Compound I Concentration, Max [1]: 6.85 ng/mL
Trough Compound I Concentration, Mean [1]: 5.63 ng/mL
Trough Compound I Concentration, Median [1]: 6.16 ng/mL
Trough Compound I Concentration, Min [1]: 3.87 ng/mL
Trough Compound I Concentration, Max [2]: 10.2 ng/mL
Trough Compound I Concentration, Mean [2]: 6.66 ng/mL
Trough Compound I Concentration, Median [2]: 5.33 ng/mL
Trough Compound I Concentration, Min [2]: 4.46 ng/mL
Trough Compound I Concentration, Max [3]: 11.7 ng/mL
Trough Compound I Concentration, Mean [3]: 9.34 ng/mL
Trough Compound I Concentration, Median [3]: 10.4 ng/mL
Trough Compound I Concentration, Min [3]: 5.91 ng/mL
Trough Compound I Concentration, Mean [4]: 17.1 ng/mL
Trough Compound I Concentration, Min [4]: 10.6 ng/mL
Trough Compound I Concentration, Mean [5]: 23.8 ng/mL
Trough Compound I Concentration, Min [5]: 14.5 ng/mL
Trough Compound I Concentration, Mean [6]: 19.8 ng/mL
Trough Compound I Concentration, Min [6]: 14.4 ng/mL
Trough Compound I Concentration, Mean (Cohort 7, 150 mg BID of Form B, Day 15): 24.8 ng/mL
Trough Compound I Concentration, Mean (Cohort 7, 150 mg BID of Form B, Day 22): 20.6 ng/mL
Compound I Concentration, Mean [7]: 26.2 ng/mL
Compound I Concentration, Min [7]: 9.03 ng/mL
Compound I Concentration, Max [8]: 57.0 ng/mL
Compound I Concentration, Mean [8]: 37.6 ng/mL
Compound I Concentration, Min [8]: 27.0 ng/mL
Compound I Concentration, Max [9]: 64.9 ng/mL
Compound I Concentration, Mean [9]: 41.3 ng/mL
Compound I Concentration, Min [9]: 24.6 ng/mL
Compound I Concentration, Max [10]: 76.6 ng/mL
Compound I Concentration, Mean [10]: 46.0 ng/mL
Compound I Concentration, Min [10]: 25.7 ng/mL
Compound I Concentration, Max [11]: 83.2 ng/mL
Compound I Concentration, Mean [11]: 50.2 ng/mL
Compound I Concentration, Min [11]: 30.5 ng/mL
Compound I Concentration, Max [12]: 67.2 ng/mL
Compound I Concentration, Mean [12]: 38.0 ng/mL
Compound I Concentration, Min [12]: 20.3 ng/mL
Compound I Concentration, Max [13]: 67.4 ng/mL
Compound I Concentration, Mean [13]: 36.7 ng/mL
Compound I Concentration, Min [13]: 15.8 ng/mL
Compound I Concentration, Max [14]: 59.7 ng/mL
Compound I Concentration, Mean [14]: 32.2 ng/mL
Compound I Concentration, Min [14]: 13.0 ng/mL
Compound I Concentration, Max [15]: 58.1 ng/mL
Compound I Concentration, Mean [15]: 28.5 ng/mL
Compound I Concentration, Min [15]: 10.2 ng/mL
Trough Compound I Concentration, Max [16]: 19.7 ng/mL
Trough Compound I Concentration, Mean [16]: 9.41 ng/mL
Trough Compound I Concentration, Median [16]: 6.82 ng/mL
Trough Compound I Concentration, Min [16]: 1.72 ng/mL
Trough Compound I Concentration, Max [17]: 16.3 ng/mL
Trough Compound I Concentration, Mean [17]: 11.0 ng/mL
Trough Compound I Concentration, Median [17]: 11.0 ng/mL
Trough Compound I Concentration, Min [17]: 5.71 ng/mL
Trough Compound I Concentration, Max [18]: 15.5 ng/mL
Trough Compound I Concentration, Mean [18]: 7.11 ng/mL
Trough Compound I Concentration, Median [18]: 5.83 ng/mL
Trough Compound I Concentration, Min [18]: 0.00 ng/mL
Compound I Concentration, Max [19]: 17.2 ng/mL
Compound I Concentration, Median [19]: 6.54 ng/mL
Compound I Concentration, Max [20]: 13.3 ng/mL
Compound I Concentration, Median [20]: 9.29 ng/mL
Compound I Concentration, Max [21]: 17.0 ng/mL
Compound I Concentration, Median [21]: 13.3 ng/mL
Compound I Concentration, Max [22]: 22.5 ng/mL
Compound I Concentration, Median [22]: 15.6 ng/mL
Compound I Concentration, Max [23]: 30.5 ng/mL
Compound I Concentration, Median [23]: 25.1 ng/mL
Compound I Concentration, Median (Cohort 8, 200 mg BID of Form B, Day 29, 6.0 h): 21.1 ng/mL
Compound I Concentration, Median (Cohort 8, 200 mg BID of Form B, Day 29, 8.0 h): 14.8 ng/mL
Compound I Concentration, Median (Cohort 8, 200 mg BID of Form B, Day 29, 10.0 h): 11.7 ng/mL
Compound I Concentration, Median (Cohort 8, 200 mg BID of Form B, Day 29, 12.0 h): 12.4 ng/mL
concentration at 0 h (100 mg BID of Form B, Day 1, 0.0 h, Mean, read-out: Compound I Concentration): 0 ng/mL
concentration at 0 h (100 mg BID of Form B, Day 1, 0.0 h, Median, read-out: Compound I Concentration): 0 ng/mL
concentration at 1 h [24]: 2.8 ng/mL
concentration at 1 h [25]: 2.6 ng/mL
concentration at 2 h [24]: 6.21 ng/mL
concentration at 2 h [25]: 5.71 ng/mL
concentration at 3 h [24]: 8.72 ng/mL
concentration at 3 h [25]: 8.09 ng/mL
concentration at 4 h [24]: 8.98 ng/mL
concentration at 4 h [25]: 7.47 ng/mL
concentration at 6 h [24]: 5.7 ng/mL
concentration at 6 h [25]: 5.12 ng/mL
concentration at 8 h [24]: 4.07 ng/mL
concentration at 8 h [25]: 3.71 ng/mL
concentration at 10 h [24]: 3.29 ng/mL
concentration at 10 h [25]: 2.91 ng/mL
concentration at 12 h [24]: 2.93 ng/mL
concentration at 12 h [25]: 2.2 ng/mL
concentration at 8 day (Cohort 6, 100 mg BID of Form B, Day 8, read-out: Trough Compound I Concentration, Max): 23.7 ng/mL
concentration at 8 day (Cohort 6, 100 mg BID of Form B, Day 8, read-out: Trough Compound I Concentration, Mean): 8.78 ng/mL
concentration at 8 day (Cohort 6, 100 mg BID of Form B, Day 8, read-out: Trough Compound I Concentration, Median): 5.49 ng/mL
concentration at 8 day (Cohort 6, 100 mg BID of Form B, Day 8, read-out: Trough Compound I Concentration, Min): 3.29 ng/mL
concentration at 15 day (Cohort 6, 100 mg BID of Form B, Day 15, read-out: Trough Compound I Concentration, Max): 22 ng/mL
concentration at 15 day (Cohort 6, 100 mg BID of Form B, Day 15, read-out: Trough Compound I Concentration, Mean): 8.92 ng/mL
concentration at 15 day (Cohort 6, 100 mg BID of Form B, Day 15, read-out: Trough Compound I Concentration, Median): 6.34 ng/mL
concentration at 15 day (Cohort 6, 100 mg BID of Form B, Day 15, read-out: Trough Compound I Concentration, Min): 3.31 ng/mL
concentration at 22 day (Cohort 6, 100 mg BID of Form B, Day 22, read-out: Trough Compound I Concentration, Max): 10.9 ng/mL
concentration at 22 day (Cohort 6, 100 mg BID of Form B, Day 22, read-out: Trough Compound I Concentration, Mean): 5.7 ng/mL
concentration at 22 day (Cohort 6, 100 mg BID of Form B, Day 22, read-out: Trough Compound I Concentration, Median): 4.42 ng/mL
concentration at 22 day (Cohort 6, 100 mg BID of Form B, Day 22, read-out: Trough Compound I Concentration, Min): 2.34 ng/mL
concentration at 0 h (Cohort 6, 100 mg BID of Form B, Day 29, 0.0 h, read-out: Compound I Concentration, Max): 9.2 ng/mL
concentration at 0 h (Cohort 6, 100 mg BID of Form B, Day 29, 0.0 h, read-out: Compound I Concentration, Mean): 4.35 ng/mL
